Biological target: μ-opioid receptor (Homo sapiens (Human), UniProt P35372)
Experiment: μ-opioid receptor [35S]GTPγS functional assay, HEK-293 cells (Table 6)
Type: biochemical
Conditions: for EC50: μ GTP
Method: μ-Opioid Receptor Functional Assay Procedures: [^35S]GTPγS functional assays were conducted using freshly thawed μ-receptor membranes prepared in-house from a cell line expressing recombinant μ opioid receptor in a HEK-293, CHO or U-2 OS cell background, or purchased from a commercial source (Perkin Elmer, Shelton, Conn.; or DiscovRx, Fremont, Calif.). Assay reactions were prepared by sequentially adding the following reagents to binding buffer (100 mM NaCl, 10 mM MgCl2, 20 mM HEPES, pH 7.4) on ice (final concentrations indicated): membrane protein (0.026 mg/mL), saponin ([…]), GDP ([…]) and [^35S]GTPγS (0.20 nM; Perkin Elmer, Shelton, Conn.). The prepared membrane solution (190 μl/well) was transferred to 96-shallow well polypropylene plates containing 10 μl of 20× concentrated stock solutions of the agonist [D-Ala^2, N-methyl-Phe^4 Gly-ol^5]-enkephalin (DAMGO) prepared in dimethyl sulfoxide (DMSO). Plates were incubated for 30 min at about 25° C. with shaking Reactions were terminated by rapid filtration onto 96-well Unifilter GF/B filter plates (Perkin Elmer, Shelton, Conn.) using a 96-well tissue harvester (Perkin Elmer, Shelton, Conn.) followed by three filtration washes with 200 μl of ice-cold wash buffer (10 mM NaH2PO4, 10 mM Na2HPO4, pH 7.4). Filter plates were subsequently dried at 50° C. for 2-3 hours. BetaScint scintillation cocktail (Perkin Elmer, Shelton, Conn.) was added (50 μl/well) and plates were counted using a Packard Top-Count for 1 min/well. Data were analyzed using the sigmoidal dose-response curve fitting functions in GraphPad PRISM v. 3.0, or an in-house function for non-linear, sigmoidal dose-response curve-fitting. [^35S]GTPγS functional assays can also be conducted using freshly thawed μ-receptor membranes prepared from a cell line expressing recombinant μ opioid receptor in a CHO-K1 cell background.
μ GTP Emax (%) is the maximal effect elicited by a compound relative to the effect elicited by DAMGO, a standard μ agonist. Generally, the μ GTP Emax (%) value measures the efficacy of a compound to treat or prevent pain or other Conditions.
The following TABLE 6 provides results on the activity response of certain Compounds of the Invention at the μ- and κ-opioid receptors determined as described above using HEK-293 cells.

## O=C(NCc1cc(Cl)cc(Cl)c1)[C@@H]1C[C@]23CCN(CC4CC4)[C@H](Cc4ccc(O)cc42)[C@]3(O)C1 [Compound 150, (2R,3aS,4R,9bS)-12-(cyclopropylmethyl)-N-(3,5-dichlorobenzyl)-3a,8-dihydroxy-1,2,3,3a,4,5-hexahydro-4,9b-(epimino-ethano)cyclopenta[a]naphthalene-2-carboxamide]
Relative to DAMGO
  Emax: -1%
Bound given in μM
  EC50: > 20 µM

## O=C(NCc1cccc(O)c1O)[C@H]1C[C@]23CCN(CC4CC4)[C@H](Cc4ccc(O)cc42)[C@]3(O)C1 [Compound 141, (2S,3aS,4R,9bS)-12-(cyclopropylmethyl)-N-(2,3-dihydroxybenzyl)-3a,8-dihydroxy-1,2,3,3a,4,5-hexabydro-4,9b-(epimino-ethano)cyclopenta[a]naphthalene-2-carboxamide]
Relative to DAMGO
  Emax: 47.4 ± 0.83%
  EC50: 0.00117 ± 0.0001 µM

## CN1CC[C@]23C[C@H](NC(=O)c4ccccc4)C[C@@]2(O)[C@H]1Cc1ccc(O)cc13 [Compound 109, N-((2S,3aS,4R,9bR)-3a,8-dihydroxy-12-methyl-1,2,3,3a,4,5-hexahydro-4,9b-(epiminoethano)cyclopenta[a]naphthalen-2-yl)benzamide]
Relative to DAMGO
  Emax: 70.4 ± 0.98%
  EC50: 0.0804 ± 0.0141 µM

## O=C(NCc1ccc(O)cc1Cl)[C@@H]1C[C@]23CCN(CC4CC4)[C@H](Cc4ccc(O)cc42)[C@]3(O)C1 [Compound 127, (2R,3aS,4R,9bS)-N-(2-chloro-4-hydroxybenzyl)-12-(cyclopropylmethyl)-3a,8-dihydroxy-1,2,3,3a,4,5-hexahydro-4,9b-(epiminoethano)cyclopenta-[a]naphthalene-2-carboxamide]
Relative to DAMGO
  Emax: -1%
Bound given in μM
  EC50: > 20 µM

## O=C(NCCN1CCCCC1)[C@H]1C[C@]23CCN(CC4CC4)[C@H](Cc4ccc(O)cc42)[C@]3(O)C1 [Compound 133, (2S,3aS,4R,9bS)-12-(cyclopropylmethyl)-3a,8-dihydroxy-N-(2-(piperidin-1-yl)ethyl)-1,2,3,3a,4,5-hexahydro-4,9b-(epiminoethano)cyclopenta[a]naphthalene-2-carboxamide]
Relative to DAMGO
  Emax: 29.8 ± 1.22%
  EC50: 0.0142 ± 0.00373 µM

## CN1CC[C@]23C[C@@H](C(=O)NCCN4CCOCC4)C[C@@]2(O)[C@H]1Cc1ccc(O)cc13 [Compound 112, (2R,3aS,4R,9bS)-3a,8-dihydroxy-12-methyl-N-(2-morpholinoethyl)-1,2,3,3a,4,5-hexahydro-4,9b-(epimino-ethano)cyclopenta[a]naphthalene-2-carboxamide]
Relative to DAMGO
  Emax: 38.8 ± 1.54%
  EC50: 10.2 ± 0.241 µM

## CN1CC[C@]23C[C@@H](C(=O)NCc4ccc(Cl)cc4Cl)C[C@@]2(O)[C@H]1Cc1ccc(O)cc13 [Compound 103, (2R,3aS,4R,9bS)-N-(2,4-dichlorobenzyl)-3a,8-dihydroxy-12-methyl-1,2,3,3a,4,5-hexahydro-4,9b-(epiminoethano)cyclo-penta[a]naphthalene-2-carboxamide]
Relative to DAMGO
  Emax: 68 ± 9.54%
  EC50: 0.389 ± 0.0733 µM

## O=S(=O)(N[C@@H]1C[C@]23CCN(CC4CC4)[C@H](Cc4ccc(O)cc42)[C@]3(O)C1)c1ccccc1 [Compound 95, N-((2R,3aS,4R,9bR)-12-(cyclopropyl-methyl)-3a,8-dihydroxy-1,2,3,3a,4,5-hexahydro-4,9b-(epiminoethano)-cyclopenta[a]naphthalen-2-yl)benzene-sulfonamide]
Relative to DAMGO
  Emax: 1%
Bound given in μM
  EC50: > 20 µM

## Cc1ccc(CNC(=O)[C@@H]2C[C@]34CCN(CC5CC5)[C@H](Cc5ccc(C#N)cc53)[C@]4(O)C2)cc1 [Compound 120, (2R,3aS,4R,9bS)-8-cyano-12-(cyclopropylmethyl)-3a-hydroxy-N-(4-methylbenzyl)-1,2,3,3a,4,5-hexahydro-4,9b-(epiminoethano)cyclopenta-[a]naphthalene-2-carboxamide]
Relative to DAMGO
  Emax: 22.7 ± 1.92%
  EC50: 0.631 ± 0.152 µM

## O=C(NCc1ccc(Cl)cc1F)[C@@H]1C[C@]23CCN(CC4CC4)[C@H](Cc4ccc(O)cc42)[C@]3(O)C1 [Compound 136, (2R,3aS,4R,9bS)-N-(4-chloro-2-fluorobenzyl)-12-(cyclopropylmethyl)-3a,8-dihydroxy-1,2,3,3a,4,5-hexahydro-4,9b-(epiminoethano)cyclopenta-[a]naphthalene-2-carboxamide]
Relative to DAMGO
  Emax: -0.33 ± 0.67%
Bound given in μM
  EC50: > 20 µM

## CN1CC[C@]23C[C@@H](C(=O)NCCO)C[C@@]2(O)[C@H]1Cc1ccc(O)cc13 [Compound 114, (2R,3aS,4R,9bS)-3a,8-dihydroxy-N-(2-hydroxyethyl)-12-methyl-1,2,3,3a,4,5-hexahydro-4,9b-(epiminoethano)cyclo-penta[a]naphthalene-2-carboxamide]
Relative to DAMGO
  Emax: 23 ± 1.54%
  EC50: 8.44 ± 1.54 µM

## O=C(NCc1ccc(F)cc1F)[C@@H]1C[C@]23CCN(CC4CC4)[C@H](Cc4ccc(O)cc42)[C@]3(O)C1 [Compound 147, (2R,3aS,4R,9bS)-12-(cyclopropylmethyl)-N-(2,4-difluorobenzyl)-3a,8-dihydroxy-1,2,3,3a,4,5-hexahydro-4,9b-(epimino-ethano)cyclopenta[a]naphthalene-2-carboxamide]
Relative to DAMGO
  Emax: -1%
Bound given in μM
  EC50: > 20 µM

## O=C(NCc1cccc(O)c1O)[C@@H]1C[C@]23CCN(CC4CC4)[C@H](Cc4ccc(O)cc42)[C@]3(O)C1 [Compound 124, (2R,3aS,4R,9bS)-12-(cyclopropylmethyl)-N-(2,3-dihydroxybenzyl)-3a,8-dihydroxy-1,2,3,3a,4,5-hexahydro-4,9b-(epimino-ethano)cyclopenta[a]naphthalene-2-carboxamide]
Relative to DAMGO
  Emax: 1.93 ± 2.93%
Bound given in μM
  EC50: > 20 µM

## Cc1ccc(CNC(=O)[C@H]2C[C@]34CCN(C)[C@H](Cc5ccc(O)cc53)[C@]4(O)C2)cc1 [Compound 97, (2S,3aS,4R,9bS)-3a,8-dihydroxy-12-methyl-N-(4-methylbenzyl)-1,2,3,3a,4,5-hexahydro-4,9b-(epiminoethano)cyclo-penta[a]naphthalene-2-carboxamide]
Relative to DAMGO
  Emax: 90.3 ± 0.88%
  EC50: 0.0281 ± 0.00154 µM

## Cc1c(Cl)cccc1CNC(=O)[C@@H]1C[C@]23CCN(CC4CC4)[C@H](Cc4ccc(O)cc42)[C@]3(O)C1 [Compound 125, (2R,3aS,4R,9bS)-N-(3-chloro-2-methylbenzyl)-12-(cyclopropylmethyl)-3a,8-dihydroxy-1,2,3,3a,4,5-hexahydro-4,9b-(epiminoethano)cyclopenta-[a]naphthalene-2-carboxamide]
Relative to DAMGO
  Emax: -1%
Bound given in μM
  EC50: > 20 µM

## O=C(NCc1ccc(F)c(F)c1)[C@@H]1C[C@]23CCN(CC4CC4)[C@H](Cc4ccc(O)cc42)[C@]3(O)C1 [Compound 145, (2R,3aS,4R,9bS)-12-(cyclopropylmethyl)-N-(3,4-difluorobenzyl)-3a,8-dihydroxy-1,2,3,3a,4,5-hexahydro-4,9b-(epimino-ethano)cyclopenta[a]naphthalene-2-carboxamide]
Relative to DAMGO
  Emax: -1%
Bound given in μM
  EC50: > 20 µM

## Cc1ccc(CNC(=O)[C@H]2C[C@]34CCN(CC5CC5)[C@H](Cc5ccc(C(N)=O)cc53)[C@]4(O)C2)cc1 [Compound 116, (2S,3aS,4R,9bS)-12-(cyclopropylmethyl)-3a-hydroxy-N^2-(4-methylbenzyl)-1,2,3,3a,4,5-hexahydro-4,9b-(epimino-ethano)cyclopenta[a]naphthalene-2,8-dicarboxamide]
Relative to DAMGO
  Emax: 23.6 ± 1.05%
  EC50: 0.00345 ± 0.00016 µM

## O=C(NCc1ccc(O)c(Cl)c1)[C@@H]1C[C@]23CCN(CC4CC4)[C@H](Cc4ccc(O)cc42)[C@]3(O)C1 [Compound 128, (2R,3aS,4R,9bS)-N-(3-chloro-4-hydroxybenzyl)-12-(cyclopropylmethyl)-3a,8-dihydroxy-1,2,3,3a,4,5-hexahydro-4,9b-(epiminoethano)cyclopenta-[a]naphthalene-2-carboxamide]
Relative to DAMGO
  Emax: -1%
Bound given in μM
  EC50: > 20 µM

## CN1CC[C@]23C[C@@H](C(=O)NCCc4ccccc4)C[C@@]2(O)[C@H]1Cc1ccc(O)cc13 [Compound 100, (2R,3aS,4R,9bS)-3a,8-dihydroxy-12-methyl-N-phenethyl-1,2,3,3a,4,5-hexahydro-4,9b-(epiminoethano)cyclo-penta[a]naphthalene-2-carboxamide]
Relative to DAMGO
  Emax: 50.3 ± 0.33%
  EC50: 1.1 ± 0.188 µM

## C[C@@H]1CN(CCNC(=O)[C@@H]2C[C@]34CCN(CC5CC5)[C@H](Cc5ccc(O)cc53)[C@]4(O)C2)C[C@H](C)O1 [Compound 134, (2R,3aS,4R,9bS)-12-(cyclopropylmethyl)-N-(2-((2S,6R)-2,6-dimethylmorpholino)-ethyl)-3a,8-dihydroxy-1,2,3,3a,4,5-hexahydro-4,9b-(epiminoethano)-cyclopenta[a]naphthalene-2-carboxamide]
Relative to DAMGO
  Emax: 9.53 ± 0.9%
  EC50: 0.092 ± 0.0197 µM

## (2R,3aS,4R,9bS)-N-(2-chlorobenzyl)-12- (cyclopropylmethyl)-3a,8-dihydroxy- 1,2,3,3a,4,5-hexahydro-4,9b-(epimino- ethano)cyclopenta[a]naphthalene-2- carboxamide [Compound 148]
Relative to DAMGO
  μ Emax (%): 1.00%
Bound given in μM
  EC50: > 20 µM

Source: patent US9656962B2, “Ring-contracted morphinans and the use thereof” (Purdue Pharma L.P., priority 2013, dated 2017)
